This is an account of results in ChEMBL document CHEMBL1142757, “Synthesis and biological evaluation of novel angularly fused polycyclic coumarins” (2005).

Each structure is given as a SMILES string. Active and inactive are the calls of the source. The rule behind the calls is not given here.

The test system of experiment [1] is Rattus norvegicus. Description: Antiinflammatory activity against Albino rat dosed at 400 mg/kg. In kind it is functional.
In experiment [2] the test system is Mus musculus. The experiment can be described thus: Analgesic activity against Swiss albino mice dosed at 400 mg/kg and activity calculated as percentage maximum possible effect (% MPE). The class given is functional.
The subject of experiment [3] is Rattus norvegicus. The experiment can be described thus: Antiinflammatory activity against Albino rat dosed at 200 mg/kg. In kind it is functional.
Experiment [4] deals with Mus musculus. The experiment can be described thus: Analgesic activity against Swiss albino mice dosed at 200 mg/kg and activity calculated as percentage maximum possible effect (% MPE). The class given is functional.
For experiment [5], the system named is Rattus norvegicus. Description: Antiinflammatory activity against Albino rat dosed at 300 mg/kg. The class given is functional.
Experiment [6] deals with Mus musculus. The experiment can be described thus: Analgesic activity against Swiss albino mice dosed at 300 mg/kg and activity calculated as percentage maximum possible effect (% MPE). In kind it is functional.
The subject of experiment [7] is Mus musculus. Description: Analgesic activity against Swiss albino mice dosed at 100 mg/kg and activity calculated as percentage maximum possible effect (% MPE); No activity. On the set-up: dose 100 mg/kg. The class given is functional, organism-based.
The subject of experiment [8] is Rattus norvegicus. The experiment can be described thus: (§1) Antiinflammatory activity against Albino rat dosed at 100 mg/kg (3h). In kind it is functional.
Experiment [9] deals with Rattus norvegicus. Description: Antiinflammatory activity against Albino rat dosed at 200 mg/kg (3h). The class given is functional.
The test system of experiment [10] is Rattus norvegicus. Description: Antiinflammatory activity against Albino rat dosed at 400 mg/kg (3h). In kind it is functional.
Experiment [11] concerns Rattus norvegicus. The experiment can be described thus: Antiinflammatory activity against Albino rat dosed at 300 mg/kg (3h). The class given is functional.
In experiment [12] the test system is Mus musculus. Description: Analgesic activity against Swiss albino mice dosed at and activity calculated as percentage maximum possible effect (% MPE). The class given is functional.
The subject of experiment [13] is Rattus norvegicus. Described as §1. The class given is functional, organism-based. Set-up: dose 100 mg/kg.

By inhibition in vivo is commonly meant the change of the read-out against control, counted positive when it falls. A lower inhibition in vivo goes with a response near the control. With `Cc1ccc2c(c1)oc(=O)c1cnc3c4ccccc4oc3c12`, testing at 400 mg/kg with Rattus norvegicus [1] gave an inhibition in vivo of 18.3%. The MPE is on record as 10.8% in the experiment on Mus musculus [2], 1.3% in the experiment with Mus musculus [4] and 22.9% with Mus musculus [6]. In addition, the inhibition in vivo at 200 mg/kg in the experiment with Rattus norvegicus [3] is 24.6%. Further, in the experiment with Rattus norvegicus [5], testing at 300 mg/kg gave an inhibition in vivo of 31.4%.

Take `O=C(O)Cc1ccccc1Nc1c(Cl)cccc1Cl` [DICLOFENAC SODIUM]: in the experiment with Mus musculus [7], the MPE entry is “inactive”. The compound also returned an inhibition in vivo at 100 mg/kg with Rattus norvegicus [8] of 94.5%.

In the experiment on Rattus norvegicus [9], `O=c1oc2cc(Cl)ccc2c2c1cnc1c3ccccc3oc12` returned an inhibition in vivo at 200 mg/kg of 19.2%. The MPE in the experiment on Mus musculus [2] is listed as 6.8%; with Mus musculus [4] it was 1.8%; in the experiment with Mus musculus [6], 3.4%. Also, the inhibition in vivo at 400 mg/kg in the experiment with Rattus norvegicus [10] is 29.4%. This compound returned an inhibition in vivo at 300 mg/kg in the experiment on Rattus norvegicus [11] of 26.3%.

Turning to `Cc1ccc2oc(=O)c3cnc4c5ccccc5oc4c3c2c1`, the inhibition in vivo at 200 mg/kg in the experiment on Rattus norvegicus [9] turned out to be 89%. Also, the MPE was 20.9% in the experiment with Mus musculus [2], 20.9% with Mus musculus [4] and 32.9% with Mus musculus [6]. Besides, in the experiment on Rattus norvegicus [10], 400 mg/kg produced 67.2% inhibition in vivo. Further, in the experiment on Rattus norvegicus [11], the inhibition in vivo at 300 mg/kg amounted to 96.3%.

`CCc1nc2c3ccccc3oc2c2c1c(=O)oc1cc(C)ccc12`: testing at 200 mg/kg in the experiment with Rattus norvegicus [9] gave an inhibition in vivo of 35.4%. The MPE with Mus musculus [2] was 7.1%; with Mus musculus [4] it was 2.4%; with Mus musculus [6], 4.9%. Also, the inhibition in vivo at 400 mg/kg with Rattus norvegicus [10] was 46.5%. In the experiment with Rattus norvegicus [11], this compound returned an inhibition in vivo at 300 mg/kg of 41.7%.

On to `Cc1nc2c3ccccc3oc2c2c1c(=O)oc1cc(Cl)ccc12`, for which 200 mg/kg produced 21.6% inhibition in vivo in the experiment on Rattus norvegicus [9]. In addition, the MPE is recorded as 9.2% in the experiment on Mus musculus [2], 4.7% with Mus musculus [4] and 7.3% in the experiment on Mus musculus [6]. For the same compound, in the experiment with Rattus norvegicus [10], the inhibition in vivo at 400 mg/kg was determined as 27.4%. Moreover, the inhibition in vivo at 300 mg/kg in the experiment on Rattus norvegicus [11] was determined as 25.9%.

In turn, `Cc1ccc2c(c1)oc(=O)c1c(C)nc3c4ccccc4oc3c12` gave an inhibition in vivo at 200 mg/kg with Rattus norvegicus [9] of 80.7%. Moreover, the MPE was 18.3% in the experiment on Mus musculus [2], 22.9% with Mus musculus [4] and 24.9% in the experiment with Mus musculus [6]. The compound also registered an inhibition in vivo at 400 mg/kg in the experiment on Rattus norvegicus [10] of 97%. Moreover, in the experiment with Rattus norvegicus [11], the inhibition in vivo at 300 mg/kg came to 88.7%.

As for `CC(=O)Oc1ccccc1C(=O)O` [ASPIRIN], in the experiment on Mus musculus [12], the MPE is recorded as 74.9%. Further, in the experiment with Rattus norvegicus [13], the inhibition entry is “inactive”.

In turn, `CCc1nc2c3ccccc3oc2c2c1c(=O)oc1cc(OC)ccc12` gave an inhibition in vivo at 200 mg/kg in the experiment on Rattus norvegicus [9] of 35.7%. The MPE in the experiment on Mus musculus [2] is recorded as 39.5%; in the experiment on Mus musculus [4] it was 24.3%; in the experiment with Mus musculus [6] it was 24.4%. Testing at 400 mg/kg with Rattus norvegicus [10] gave an inhibition in vivo of 67.2%. The compound further displayed an inhibition in vivo at 300 mg/kg in the experiment on Rattus norvegicus [11] of 78.1%.
